≈ marks a conversion by molar mass, not a printed value. Like-named read-outs stand apart in the source and are kept apart here.
Columns and labels:
Type in all cases: cell-based
[1] = test system: micrococcus flavus ATCC 10240; test: MIC against micrococcus flavus ATCC 10240; conditions: ATCC10240; micrococcus flavus ATCC 10240; read-out: MIC
Description: (§1) Now, for illustrating the excellent pharmacological effects of the compounds of this invention, the values of MIC (γ/ml) of the compounds against various bacteria are shown in the following table, the compounds of this invention are shown by example numbers.

[2] = test system: Pseudomonas ovalis IAM 1002; test: MIC against Pseudomonas ovalis IAM 1002; conditions: Pseudomonas putida, IAM1002
Description: as §1
6: Pseudomonas ovalis IAM 1002

[3] = test system: Bacillus subtilis ATCC 6633; test: MIC against Bacillus subtilis ATCC 6633; conditions: ATCC6633; Bacillus subtilis ATCC 6633; read-out: MIC
Description: as §1
14: Bacillus subtilis ATCC 6633

[4] = test system: Klebsiella pneumoniae ATCC 10031; test: MIC against Klebsiella pneumoniae ATCC 10031; conditions: ATCC10031
Description: as §1
8: Klebsiella pneumoniae ATCC 10031

[5] = test system: proteus mirabilis IFM OM-19; test: MIC against proteus mirabilis IFM OM-19; conditions: IFMOM19
Description: as §1
3. proteus mirabilis IFM OM-19

[6] = test system: Shigella flexnori 2a 1675; test: MIC against Shigella flexnori 2a 1675; conditions: 2A1675
Description: as §1

proteus vulgaris OX 19US = test: MIC against proteus vulgaris OX 19US; conditions: OX19US
Description: as §1
2. proteus vulgaris OX 19US

[7] = test system: staphylococcus aureus 209P; test: MIC against staphylococcus aureus 209P
Description: as §1
16: staphylococcus aureus 209P

[8] = test system: staphylococcus Shimanishi; test: MIC against staphylococcus Shimanishi; conditions: staphylococcus Shimanishi; read-out: MIC
Description: as §1
17. staphylococcus Shimanishi

Shigella sonnei II 37148 = test: MIC against Shigella sonnei II 37148; conditions: II37148
Description: as §1

salmonella typhi H901W = test: microbe, parasite or virus in culture; conditions: Salmonella enterica
Staphylococcus Onuma = test: MIC against Staphylococcus Onuma
Description: as §1

[9] = test system: pseudomonas aeruginosa ATCC 8689; test: MIC against pseudomonas aeruginosa ATCC 8689; conditions: ATCC8689; pseudomonas aeruginosa ATCC 8689; read-out: MIC
Description: as §1
4: pseudomonas aeruginosa ATCC 8689

salmonella enteritidis = test: MIC against salmonella enteritidis; conditions: Salmonella enterica; salmonella enteritidis; read-out: MIC
Description: as §1
10: salmonella enteritidis

Proteus vulgaris OXK US = test: MIC against Proteus vulgaris OXK US; conditions: Proteus vulgaris OXK US; read-out: MIC
Description: as §1
1: Proteus vulgaris OXK US

[10] = test system: bacillus megatherium 10778; test: MIC against bacillus megatherium 10778; conditions: bacillus megatherium 10778; read-out: MIC
Description: as §1

[11] = test system: pseudomonas aeruginosa 99 (Gentamycin resistant); test: MIC against pseudomonas aeruginosa 99 (Gentamycin resistant)
Description: as §1
5: pseudomonas aeruginosa 99 (Gentamycin resistant)

[12] = test system: escherichia coli Kauffman 0-1; test: MIC against escherichia coli Kauffman 0-1; conditions: escherichia coli Kauffman 0-1; read-out: MIC
Description: as §1
7: escherichia coli Kauffman 0-1

[13] = Pseudomonas ovalis IAM 1002, read-out: MIC
[14] = proteus vulgaris OX 19US, read-out: MIC
[15] = Staphylococcus Onuma, read-out: MIC
[16] = pseudomonas aeruginosa 99 (Gentamycin resistant), read-out: MIC
[17] = Klebsiella pneumoniae ATCC 10031, read-out: MIC

| Compound | MIC [1] | MIC [2, 13] | MIC [3] | MIC ([4]; Klebsiella pneumoniae) | MIC [5] | MIC [6] | MIC (proteus vulgaris OX 19US; [14]) | MIC ([7]; read-out: MIC) | MIC [8] | MIC (Shigella sonnei II 37148) | MIC (salmonella typhi H901W) | MIC (Staphylococcus Onuma; [15]) | MIC [9] | MIC (salmonella enteritidis) | MIC (Proteus vulgaris OXK US) | MIC [10] | MIC [11, 16] | MIC [12] | MIC [2] | MIC [4, 17] | other results |
| --- | --- | --- | --- | --- | --- | --- | --- | --- | --- | --- | --- | --- | --- | --- | --- | --- | --- | --- | --- | --- | --- |
| CC(=O)Nc1nc(S)nc(SCC2=C(C(=O)O)N3C(=O)[C@@H](NC(=O)[C@H](NC(=O)c4cnccc4O)c4ccccc4)[C@H]3SC2)n1 [Example 4, 7-[D-α-(4-hydroxynicotinoylamido)-α-phenylacetamido]-3-(4-mercapto-6-acetylamino-1,3,5-triazin-2-yl)thiomethyl-Δ^3-cephem-4-carboxylic acid] | 6.25 µg/mL (≈ 9.35 µM) | 50 µg/mL (≈ 74.8 µM) | 0.78 µg/mL (≈ 1.17 µM) | 12.5 µg/mL (≈ 18.7 µM) | 0.39 µg/mL (≈ 0.583 µM) | 12.5 µg/mL (≈ 18.7 µM) | 6.25 µg/mL (≈ 9.35 µM) | 1.56 µg/mL (≈ 2.33 µM) | 6.25 µg/mL (≈ 9.35 µM) | 12.5 µg/mL (≈ 18.7 µM) | 0.39 µg/mL (≈ 0.583 µM) | 6.25 µg/mL (≈ 9.35 µM) | 50 µg/mL (≈ 74.8 µM) | 0.78 µg/mL (≈ 1.17 µM) | 0.19 µg/mL (≈ 0.284 µM) | 0.39 µg/mL (≈ 0.583 µM) | 50 µg/mL (≈ 74.8 µM) | 6.25 µg/mL (≈ 9.35 µM) |  |  |  |
| O=C(O)C1=C(CSc2cc(S)ncn2)CS[C@@H]2[C@H](NC(=O)[C@H](NC(=O)c3cnccc3O)c3ccccc3)C(=O)N12 [Example 5, 7-[D-α-(4-hydroxynicotinoylamido)-α-phenylacetamido]-3-(4-mercaptopyrimidin-6-yl)thiomethyl-Δ^3-cephem-4-carboxylic acid] | 3.13 µg/mL (≈ 5.13 µM) |  | 0.39 µg/mL (≈ 0.639 µM) |  | 0.19 µg/mL (≈ 0.311 µM) | 6.25 µg/mL (≈ 10.2 µM) | 0.78 µg/mL (≈ 1.28 µM) | 0.78 µg/mL (≈ 1.28 µM) | 3.13 µg/mL (≈ 5.13 µM) | 6.25 µg/mL (≈ 10.2 µM) | < 0.09 µg/mL |  | 25 µg/mL (≈ 40.9 µM) | 0.39 µg/mL (≈ 0.639 µM) | < 0.09 µg/mL | 0.19 µg/mL (≈ 0.311 µM) | 25 µg/mL (≈ 40.9 µM) | 3.13 µg/mL (≈ 5.13 µM) | 6.25 µg/mL (≈ 10.2 µM) | 3.13 µg/mL (≈ 5.13 µM) | MIC (Staphylococcus Onuma; Staphylococcus): 6.25 µg/mL (≈ 10.2 µM) |
| Nc1nc(S)cc(SCC2=C(C(=O)O)N3C(=O)[C@@H](NC(=O)[C@H](NC(=O)c4cnccc4O)c4ccccc4)[C@H]3SC2)n1 [Example 6] | 3.13 µg/mL (≈ 5 µM) |  | 0.78 µg/mL (≈ 1.25 µM) |  | 1.56 µg/mL (≈ 2.49 µM) | 12.5 µg/mL (≈ 20 µM) |  | 0.78 µg/mL (≈ 1.25 µM) | 3.13 µg/mL (≈ 5 µM) | 12.5 µg/mL (≈ 20 µM) | 0.19 µg/mL (≈ 0.304 µM) | 6.25 µg/mL (≈ 9.99 µM) | 100 µg/mL (≈ 160 µM) | 0.39 µg/mL (≈ 0.623 µM) | 0.19 µg/mL (≈ 0.304 µM) | 0.78 µg/mL (≈ 1.25 µM) | 50 µg/mL (≈ 79.9 µM) | 6.25 µg/mL (≈ 9.99 µM) | 12.5 µg/mL (≈ 20 µM) | 6.25 µg/mL (≈ 9.99 µM) | MIC (proteus vulgaris OX 19US; Proteus vulgaris): 12.5 µg/mL (≈ 20 µM) |
| CSc1nc(S)cc(SCC2=C(C(=O)O)N3C(=O)[C@@H](NC(=O)[C@H](NC(=O)c4cnccc4O)c4ccccc4)[C@H]3SC2)n1 [Example 7, 7-[D-α-(4-hydroxynicotinoylamido)-α-phenylacetamido]-3-(4-mercapto-2-methylthiopyrimidin-6-yl)thiomethyl-Δ^3-cephem-4-carboxylic acid] | 0.78 µg/mL (≈ 1.19 µM) |  | 0.19 µg/mL (≈ 0.289 µM) | 12.5 µg/mL (≈ 19 µM) | 0.78 µg/mL (≈ 1.19 µM) | 12.5 µg/mL (≈ 19 µM) | 0.39 µg/mL (≈ 0.594 µM) |  | 0.78 µg/mL (≈ 1.19 µM) | 25 µg/mL (≈ 38.1 µM) | 0.78 µg/mL (≈ 1.19 µM) | 3.13 µg/mL (≈ 4.77 µM) | 25 µg/mL (≈ 38.1 µM) | 0.39 µg/mL (≈ 0.594 µM) | 0.78 µg/mL (≈ 1.19 µM) | 0.39 µg/mL (≈ 0.594 µM) |  | 25 µg/mL (≈ 38.1 µM) | 12.5 µg/mL (≈ 19 µM) |  | MIC [7]: 0.19 µg/mL (≈ 0.289 µM); MIC ([11]; Pseudomonas aeruginosa): 12.5 µg/mL (≈ 19 µM) |
| Cn1nnnc1SCC1=C(C(=O)O)N2C(=O)C(NC(=O)C(NC(=O)c3cccnc3)c3ccccc3)C2SC1 (stereo not drawn) [Example C-1, 7-(α-nicotinoylamido-α-phenylacetamido)-3-(1-methyl-1H-tetrazle-5-ylthiomethyl)-Δ^3-cephem-4-carboxylic acid, reference compound] | 1.56 µg/mL (≈ 2.75 µM) | > 100 µg/mL | 3.13 µg/mL (≈ 5.52 µM) |  | 12.5 µg/mL (≈ 22.1 µM) | 50 µg/mL (≈ 88.2 µM) |  |  |  | 100 µg/mL (≈ 176 µM) | > 100 µg/mL |  | > 100 µg/mL |  | 3.13 µg/mL (≈ 5.52 µM) | 3.13 µg/mL (≈ 5.52 µM) | > 100 µg/mL | 50 µg/mL (≈ 88.2 µM) |  | 12.5 µg/mL (≈ 22.1 µM) |  |
| Cc1nnc(SCC2=C(C(=O)O)N3C(=O)C(NC(=O)C(NC(=O)c4cccnc4)c4ccccc4)C3SC2)s1 (centres unmarked) [Example C-2, reference compound] | 1.56 µg/mL (≈ 2.68 µM) | > 100 µg/mL | 1.56 µg/mL (≈ 2.68 µM) |  | 25 µg/mL (≈ 42.9 µM) | 50 µg/mL (≈ 85.8 µM) |  |  |  | 100 µg/mL (≈ 172 µM) | > 100 µg/mL |  | > 100 µg/mL |  | 6.25 µg/mL (≈ 10.7 µM) | 3.13 µg/mL (≈ 5.37 µM) | > 100 µg/mL | 100 µg/mL (≈ 172 µM) |  | 12.5 µg/mL (≈ 21.5 µM) |  |
